Test results as given in the supplement of paper PMC10307832.

Columns and labels:
Assay in all cases: relative viability (nuclei count vs DMSO), 5 days (fraction); higher = more cells survive
AZ505 = compound: C1CCC(CC1)N(CCNCCC2=C3C(=C(C=C2)O)NC(=O)CO3)C(=O)CCNCCC4=CC(=C(C=C4)Cl)Cl [AZ505]
How it was run: (§1)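 After an overnight hold at 37 °C, lung cancer cell lines in 1536-well plates were pinned with five library-drug doses (not always all listed), each √10 from the next, on vehicle-anchored plates. The cells stayed 5 days without fresh medium, then a one-step fix, permeabilisation and Hoechst stain preceded 4× imaging and MetaXpress nuclear counts. A plate passed only with control CV under 25% and at least one doubling. Viability is the median, over plates, of treated-well nuclei relative to vehicle-well nuclei.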

Dactolisib = compound: Cn1c(=O)n(-c2ccc(C(C)(C)C#N)cc2)c2c3cc(-c4cnc5ccccc5c4)ccc3ncc21 [Dactolisib]
How it was run: as §1

AZ505 + Navitoclax = compound: C1CCC(CC1)N(CCNCCC2=C3C(=C(C=C2)O)NC(=O)CO3)C(=O)CCNCCC4=CC(=C(C=C4)Cl)Cl [AZ505] + CC1(C)CCC(c2ccc(Cl)cc2)=C(CN2CCN(c3ccc(C(=O)NS(=O)(=O)c4ccc(N[C@H](CCN5CCOCC5)CSc5ccccc5)c(S(=O)(=O)C(F)(F)F)c4)cc3)CC2)C1 [Navitoclax] (partner 0.5 µM)
How it was run: (§2)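 After 5 days of treatment, lung cancer cells in 1536-well plates were fixed and stained in a single step (final 0.05% Triton X-100, 1% formaldehyde, 1 ug/ml Hoechst) and their nuclei counted on 4× images. Treatment had been applied by pin tool the day after seeding as one drug alone or as a fixed anchor-drug dose with five library-drug doses (not always all listed) in √10 steps. Relative viability is the nuclei count of treated wells divided by that of vehicle wells, and values are medians of duplicate plates.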

Dactolisib + Tozasertib = compound: Cn1c(=O)n(-c2ccc(C(C)(C)C#N)cc2)c2c3cc(-c4cnc5ccccc5c4)ccc3ncc21 [Dactolisib] + Cc1cc(Nc2cc(N3CCN(C)CC3)nc(Sc3ccc(NC(=O)C4CC4)cc3)n2)n[nH]1 [Tozasertib] (partner 0.1 µM)
How it was run: as §2

UMC-11
relative viability (AZ505; 0.08 µM): 0.887
relative viability (AZ505; 0.253 µM): 0.994
relative viability (AZ505; 0.8 µM): 0.94
relative viability (AZ505; 2.53 µM): 1.07
relative viability (AZ505; 8 µM): 1.03
relative viability (Dactolisib; 0.002 µM): 0.96
relative viability (Dactolisib; 0.006325 µM): 0.836
relative viability (Dactolisib; 0.02 µM): 0.77
relative viability (Dactolisib; 0.06325 µM): 0.398
relative viability (Dactolisib; 0.2 µM): 0.273
relative viability (AZ505 + Navitoclax; first compound 0.08 µM): 0.26
relative viability (AZ505 + Navitoclax; first compound 0.253 µM): 0.295
relative viability (AZ505 + Navitoclax; first compound 0.8 µM): 0.327
relative viability (AZ505 + Navitoclax; first compound 2.53 µM): 0.334
relative viability (AZ505 + Navitoclax; first compound 8 µM): 0.373
relative viability (Dactolisib + Tozasertib; first compound 0.002 µM): 0.214
relative viability (Dactolisib + Tozasertib; first compound 0.006325 µM): 0.198
relative viability (Dactolisib + Tozasertib; first compound 0.02 µM): 0.216
relative viability (Dactolisib + Tozasertib; first compound 0.06325 µM): 0.221
relative viability (Dactolisib + Tozasertib; first compound 0.2 µM): 0.23
